As a reminder, the IC50 is the concentration needed to halve the response being measured. The low end stands for greater potency in that assay, the high end for weaker potency in that assay.

A value given as a limit tells only on which side of the number the result lay.

The target in the assay is T1, Murine PKD1 kinase domain (Mus musculus, UniProt Q62101).
T1 construct: hexahistidine (pFastBac HTb leader) (N); made in house; host or cells: Sf9 insect cells, baculovirus (Bac-to-Bac HT, pFastBac HTb)
T1 sequence (Q62101 with tags, fused parts or gaps R683W): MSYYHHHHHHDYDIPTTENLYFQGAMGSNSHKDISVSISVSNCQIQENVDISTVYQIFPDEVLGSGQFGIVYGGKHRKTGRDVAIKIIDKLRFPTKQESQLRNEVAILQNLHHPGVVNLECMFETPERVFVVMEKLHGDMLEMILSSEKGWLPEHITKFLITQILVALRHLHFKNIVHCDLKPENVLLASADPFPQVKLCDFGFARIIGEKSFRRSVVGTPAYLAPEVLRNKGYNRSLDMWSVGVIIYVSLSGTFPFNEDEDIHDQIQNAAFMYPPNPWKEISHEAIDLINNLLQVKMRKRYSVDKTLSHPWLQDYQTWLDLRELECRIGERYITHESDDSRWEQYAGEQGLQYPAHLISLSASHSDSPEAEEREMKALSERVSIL
Description: PKD1 (Murine Kinase Domain) Enzyme Activity Assay (IMAP fluorescence polarisation). The assay is classed as biochemical. Particulars: 10 μM ATP, 60 minutes, room temperature. For orientation: Polarisation of emitted light reports the rotation of a fluorescent probe.

For `COc1cc(-c2cc(-c3cccc(C(=O)NCCN(C)C)c3)cnc2N)ncn1` [Y-093, 3-[6-Amino-5-(6-methoxy-pyrimidin-4-yl)-pyridin-3-yl]-N-(2-dimethylamino-ethyl)-benzamide], the IC50 is below 1 µM.
For `CN(C)CCNC(=O)c1cccc(-c2cnc(N)c(-c3cccc4c3oc3ccccc34)n2)c1` [X-012, 3-(5-Amino-6-dibenzofuran-4-yl-pyrazin-2-yl)-N-(2-dimethylamino-ethyl)-benzamide], the IC50 was below 1 µM.
Take `COc1cc(OC)cc(-c2cc(-c3cccc(C(=O)NCCN(C)C)c3)cnc2N)c1` [Y-081, 3-[6-Amino-5-(3,5-dimethoxy-phenyl)-pyridin-3-yl]-N-(2-dimethylamino-ethyl)-benzamide]: the IC50 is below 1 µM.
Regarding `COc1cccc(-c2cc(-c3cccc(C(=O)NC(C)CN(C)C)c3)cnc2N)c1` (stereo not drawn) [Y-092, 3-[6-Amino-5-(3-methoxy-phenyl)-pyridin-3-yl]-N-(2-dimethylamino-1-methyl-ethyl)-benzamide], the IC50 is below 1 µM.
Consider `CN(C)CCNC(=O)c1cccc(-c2cnc(N)c(-c3ccc(CO)cc3)c2)c1` [Y-061, 3-[6-Amino-5-(4-hydroxymethyl-phenyl)-pyridin-3-yl]-N-(2-dimethylamino-ethyl)-benzamide], for which the IC50 is below 1 µM.
`CN(C)CCNC(=O)c1cccc(-c2cnc(N)c(-c3cnc4ccccc4c3)c2)c1` [Y-090, 3-(6-Amino-5-quinolin-3-yl-pyridin-3-yl)-N-(2-dimethylamino-ethyl)-benzamide]: the IC50 is below 1 µM.
As to `CC(C)Oc1cccc(-c2cc(-c3cccc(C(=O)NCCN(C)C)c3)cnc2N)c1` [Y-046, 3-[6-Amino-5-(3-isopropoxy-phenyl)-pyridin-3-yl]-N-(2-dimethylamino-ethyl)-benzamide], the 50% inhibitory concentration (IC50) fell in the range of 1 to 10 µM.
Turning to `COc1cc(F)ccc1-c1cc(-c2cccc(C(=O)NCCN(C)C)c2)cnc1N` [Y-054, 3-[6-Amino-5-(4-fluoro-2-methoxy-phenyl)-pyridin-3-yl]-N-(2-dimethylamino-ethyl)-benzamide], the IC50 is 1 to 10 µM.
`CN(C)CCNC(=O)c1cccc(-c2cnc(N)c(-c3cccc(-c4ccccc4)c3)c2)c1` [Y-013, 3-(6-Amino-5-biphenyl-3-yl-pyridin-3-yl)-N-(2-dimethylamino-ethyl)-benzamide] showed an IC50 below 1 µM.
As to `CN(C)CCNC(=O)c1cccc(-c2cnc(N)c(-c3cccc4c3sc3ccccc34)c2)c1` [Y-015, 3-(6-Amino-5-dibenzothiophen-4-yl-pyridin-3-yl)-N-(2-dimethylamino-ethyl)-benzamide], the IC50 was below 1 µM.
`COc1cc(-c2cncc(-c3cccc(C(=O)NCCN)c3)n2)ccc1O` [X-021, N-(2-Amino-ethyl)-3-[6-(4-hydroxy-3-methoxy-phenyl)-pyrazin-2-yl]-benzamide] registered an IC50 below 1 µM.
Consider `COc1ccc(-c2cc(-c3cccc(C(=O)NCCN(C)C)c3)cnc2N)cn1` [Y-008, 3-(2-Amino-6′-methoxy-[3,3′]bipyridinyl-5-yl)-N-(2-dimethylamino-ethyl)-benzamide], for which the IC50 is 1 to 10 µM.
In the case of `COc1ccccc1-c1nc(-c2cccc(C(=O)NCCN(C)C)c2)cnc1N` [X-015, 3-[5-Amino-6-(2-methoxy-phenyl)-pyrazin-2-yl]-N-(2-dimethylamino-ethyl)-benzamide] it was 1 to 10 µM.
Regarding `CC(=O)Nc1cccc(-c2cc(-c3cccc(C(=O)NCCN(C)C)c3)cnc2N)c1` [Y-076, 3-[5-(3-Acetylamino-phenyl)-6-amino-pyridin-3-yl]-N-(2-dimethylamino-ethyl)-benzamide], the IC50 is below 1 µM.
In turn, `CC(=O)Nc1cccc(-c2cncc(-c3cccc(C(=O)NCCCN(C)C)c3)n2)c1` [X-006, 3-[6-(3-Acetylamino-phenyl)-pyrazin-2-yl]-N-(3-dimethylamino-propyl)-benzamide] returned an IC50 below 1 µM.
In turn, `COc1cccc(-c2cc(-c3cccc(C(=O)N(C)CCN(C)C)c3)cnc2N)c1` [Y-075, 3-[6-Amino-5-(3-methoxy-phenyl)-pyridin-3-yl]-(2-dimethylamino-ethyl)-N-methyl-benzamide] registered an IC50 below 1 µM.
Regarding `COc1cc(-c2nc(-c3cccc(C(=O)NCCN(C)C)c3)cnc2N)ccn1` [X-024, 3-[5-Amino-6-(2-methoxy-pyridin-4-yl)-pyrazin-2-yl]-N-(2-dimethylamino-ethyl)-benzamide], the IC50 was below 1 µM.
On to `COc1cccc(-c2cncc(-c3cccc(C(=O)NCCCN(C)C)c3)n2)c1` [X-001, N-(3-Dimethylamino-propyl)-3-[6-(3-methoxy-phenyl)-pyrazin-2-yl]-benzamide], for which the IC50 was in the range of 1 to 10 µM.
In turn, `CN(C)CCNC(=O)c1cccc(-c2cnc(N)c(-c3ccc(-c4ccccc4)cc3F)c2)c1` [Y-045, 3-[6-Amino-5-(3-fluoro-biphenyl-4-yl)-pyridin-3-yl]-N-(2-dimethylamino-ethyl)-benzamide] yielded an IC50 below 1 µM.
Compound `COc1cc(-c2cc(-c3cccc(C(=O)NCCN(C)C)c3)cnc2N)ccn1` [Y-005, 3-(2-Amino-2′-methoxy-[3,4′]bipyridinyl-5-yl)-N-(2-dimethylamino-ethyl)-benzamide] came in with an IC50 below 1 µM.
`COc1ccccc1-c1cncc(-c2cccc(C(=O)NCCN(C)C)c2)n1` [X-002, N-(2-Dimethylamino-ethyl)-3-[6-(2-methoxy-phenyl)-pyrazin-2-yl]-benzamide] came in with an IC50 of 1 to 10 µM.
With `CN(C)CCNC(=O)c1cccc(-c2cnc(N)c(-c3cccc(C#N)c3)c2)c1` [Y-041, 3-[6-Amino-5-(3-cyano-phenyl)-pyridin-3-yl]-N-(2-dimethylamino-ethyl)-benzamide], the IC50 was below 1 µM.
Consider `CN(C)CCNC(=O)c1cccc(-c2cnc(N)c(-c3cncc4ccccc34)c2)c1` [Y-078, 3-(6-Amino-5-isoquinolin-4-yl-pyridin-3-yl)-N-(2-dimethylamino-ethyl)-benzamide], for which the IC50 was below 1 µM.
`CSc1nccc(-c2cc(-c3cccc(C(=O)NCCN(C)C)c3)cnc2N)n1` [Y-086, 3-[6-Amino-5-(2-methylsulfanyl-pyrimidin-4-yl)-pyridin-3-yl]-N-(2-dimethylamino-ethyl)-benzamide] had an IC50 below 1 µM.
`CN1CCN(C(=O)c2cccc(-c3cnc(N)c(-c4cccc5c4oc4ccccc45)n3)c2)CC1` [X-008, [3-(5-Amino-6-dibenzofuran-4-yl-pyrazin-2-yl)-phenyl]-(4-methyl-piperazin-1-yl)-methanone] displayed an IC50 below 1 µM.
Compound `CN(C)CCNC(=O)c1cccc(-c2cnc(N)c(-c3ccc4c(ccn4C)c3)c2)c1` [Y-027, 3-[6-Amino-5-(1-methyl-1H-indol-5-yl)-pyridin-3-yl]-N-(2-dimethylamino-ethyl)-benzamide] came in with an IC50 below 1 µM.
Compound `COc1cc(-c2cc(-c3cccc(C(=O)NCCN(C)C)c3)cnc2N)ccc1F` [Y-056, 3-[6-Amino-5-(4-fluoro-3-methoxy-phenyl)-pyridin-3-yl]-N-(2-dimethylamino-ethyl)-benzamide] gave an IC50 below 1 µM.
For `NC(=O)c1cccc(-c2cnc(N)c(-c3ccoc3)c2)c1` [Y-016, 3-(6-Amino-5-furan-3-yl-pyridin-3-yl)-benzamide] the value was below 1 µM.
Regarding `COc1cc(-c2cc(-c3cccc(C(=O)N4CCN(C)CC4)c3)cnc2N)ccc1O` [Y-004, {3-[6-Amino-5-(4-hydroxy-3-methoxy-phenyl)-pyridin-3-yl]-phenyl}-(4-methyl-piperazin-1-yl)-methanone], the IC50 is 1 to 10 µM.
`CC(C)Cc1ccc(-c2cc(-c3cccc(C(=O)NCCN(C)C)c3)cnc2N)cc1` [Y-062, 3-[6-Amino-5-(4-isobutyl-phenyl)-pyridin-3-yl]-N-(2-dimethylamino-ethyl)-benzamide] showed an IC50 below 1 µM.

Values taken from patent US20110098325A1, “PYRIDINE BENZAMIDES AND PYRAZINE BENZAMIDES USED AS PKD INHIBITORS” (CANCER RESEARCH TECHNOLOGY LIMITED, priority 2006, published 2011).
